Test results published in patent EP4640223A1, “PHARMACEUTICAL COMPOSITION FOR PREVENTION OR TREATMENT OF CARDIOVASCULAR DISEASE, COMPRISING SODIUM-GLUCOSE COTRANSPORTER-2 INHIBITOR AND ANGIOTENSIN II RECEPTOR BLOCKER” (THPharm Corp., priority 2022, dated 2024).
Where two headings read alike, the source gives them in different places.

Tests used:
[1] = Drug-drug compatibility test under accelerated stability conditions; format: physicochemical; conditions: for flexible substance / content (SGLT-2 inhibitor) / content (ARB): HPLC; for content (SGLT-2 inhibitor): second figure of the cell; for property: color, clumping, etc.; for content (ARB): first figure of the cell
Procedure: Specifically, after storing a mixture of ARB and SGLT-2 inhibitor for 2 weeks under accelerated stability test conditions (40 ± 2°C/75 ± 5% relative humidity), changes in the contents of each ingredient and flexible substance and changes in properties (color, clumping, etc.) were analyzed. Olmesartan, Valsartan, and Telmisartan were used as ARBs, and Empagliflozin, Dapagliflozin (Dapagliflozin propanediol monohydrate), and Canagliflozin were used as SGLT-2 inhibitors.

[2] = test system: A549 cells; assay: Cell survival rate (MTT) in A549 cells; format: cell-based; conditions: after 24 hours and 48 hours, up to a concentration of 25 µM
Procedure: (§1) Specifically, A549 cells were obtained from the Korean Cell Line Bank (KCLB) and subcultured using a RPMI-1640 medium supplemented with 10% fetal bovine serum (FBS) and 1% Penicillin, and MDCK cells were obtained from ATCC and subcultured using a DMEM medium supplemented with 10% FBS. 200 µl each of the A549 cells and MDCK cells incubated in an incubator under 37°C and 5% CO2 conditions were dispensed at 2 × 10^4 cells/well in a 96-well plate, and then a control group was treated with 100 µl of the medium, and experimental groups were treated with 1.25, 25, 50, and 100 µM of Telmisartan or Olmesartan, respectively. After 24 hours and 48 hours, all of the wells were treated with 50 µl each of a 2 mg/ml MTT reagent and incubated in an incubator for 3 hours, and then each well was added with 500 µl of DMSO, wrapped in foil, stirred for 30 minutes at room temperature, and the absorbance was measured at 570 nm to obtain the cell survival rate.

[3] = test system: MDCK cells; assay: Cell survival rate (MTT) in MDCK cells; format: cell-based; conditions: after 24 hours and 48 hours, up to a concentration of 25 µM
Procedure: as §1

[4] = test system: angiotensin converting enzyme (ACE); assay: ACE protein expression (Human ACE ELISA) in LPS inflammation-induced H9c2 cells; format: cell-based, rat
Procedure: Specifically, H9c2 cells as a human cardiac cell line were obtained and used from the Korea Cell Line Bank (KCLB 40071, Korea) and incubated and prepared in a DMEM medium supplemented with 10% FBS and 1% antibiotic-antimycotic (10 units/ml penicillin, 100 µg/ml streptomycin, 0.25 µg/ml amphotericin) under 37°C and 5% CO2 conditions.
To confirm the effect on ACE activity, the prepared H9c2 cells were treated with 2.5 µg/ml of Lipopolysaccharide (LPS), which was 2.5 times more than the amount used in conventional inflammation-related experiments, to induce inflammation, thereby setting the optimized conditions for confirming ACE expression. […]
To perform the ELISA assay, 10,000 pg/ml, 5,000 pg/ml, 2,500 pg/ml, 1,250 pg/ml, 625 pg/ml, 312 pg/ml, and 156 pg/ml of Human ACE standard solutions and a standard dilution buffer were added by 0.1 ml to each well of an antibody-coated 96-well plate. […] Thereafter, each well was added with 90 µl of the prepared TMB solution, incubated for 20 to 25 minutes in a dark room at 37°C, and then treated with each 0.1 ml of the prepared TMB stop solution to stop an ACE ELISA reaction, and the OD absorbance at 450 nm was read in a microplate reader within 30 minutes, and the relative OD450 was derived using the following Equation. […]

[5] = repeated oral, steady state
[6] = test system: angiotensin converting enzyme (ACE); assay: ACE mRNA expression (RT-PCR, normalized to GAPDH) in LPS inflammation-induced H9c2 cells; format: cell-based, rat
Procedure: Specifically, LPS inflammation-induced H9c2 cells in Experimental Example 1-2 were treated with 10 or 25 µM Telmisartan and 10 or 50 µM Olmesartan, and then treated with 200 µl of chloroform together with 1 ml of TRIZol (Sigma, USA), gently mixed, and separated for 10 minutes, and then centrifuged at 4°C and 10,000 rpm for 10 minutes. After centrifugation, only the supernatant from the tube was taken and transferred to a new sterile tube, and the supernatant was treated with 500 µl of isopropanol to precipitate RNA. The precipitated RNA was centrifuged at 4°C, 10,000 rpm for 10 minutes, and then the supernatant except for the pellets in the tube was fully removed, and the RNA pellets were treated with 500 µl of 75% ethyl alcohol and thoroughly washed. The washed pellets were centrifuged at 4°C, 10,000 rpm for 5 minutes, and then the supernatant except the pellets was fully removed. The tube containing the pellets from which the supernatant had been cleanly removed was treated with diethyl pyrocarbonate (DEPC)-water and stored at - 80°C for use in an RT-PCR experiment.
RT-PCR was performed by synthesizing cDNA from mRNA using an RT-PCR kit containing DNA polymerase, buffer, dNTP, and tracking dye, and then using ACE primers in Table 1 under the conditions in Table 2 for 35 cycles. The PCR products were electrophoresed on a […] agarose gel, identified using a UV transilluminator, and expressed as normalized to GAPDH for quantitative comparison.
In order to confirm the effect of each combination or single substance on the mRNA expression of ACE, the experimental samples in Table 3 were treated to H9c2 cells induced with LPS inflammation in Experimental Example 1-2, respectively, and then the mRNA expression of ACE was evaluated in the same manner as in Experimental Example 1-3.

[7] = 4-week repeated oral administration toxicity; format: in vivo, Sprague-Dawley rats; conditions: daily for 4 weeks
Procedure: Specifically, groups were configured in the same manner as in Experimental Example 4-1, and the combinations were administered orally daily for 4 weeks to 5 male and 5 female 6-week-old Sprague-Dawley rats per group. During the test, general symptom observation, blood test, and body weight measurement were performed, and after the observation period ended, the rats were euthanized and autopsied.

[8] = Acceleration 1 week, 40 ± 2°C/75 ± 5% relative humidity
[9] = Acceleration 2 week, 40 ± 2°C/75 ± 5% relative humidity
[10] = alone, low-concentration administration groups of 2.5 µM to 10 µM
[11] = experimental samples at the concentrations of Table 3

For `Cc1ccc([C@@H]2O[C@H](CO)[C@@H](O)[C@H](O)[C@H]2O)cc1Cc1ccc(-c2ccc(F)cc2)s1` [Com. Ex. 21, Canagliflozin], the flexible substance [1, 8] was 1.0 or less, the “content (SGLT-2 inhibitor)” value [1, 8] was 95.2% and the property [1, 8] was “unsuitable”. For the same compound, the flexible substance [1, 9] was 5.0 or more, the “content (SGLT-2 inhibitor)” value [1, 9] was 89.2% and the property [1, 9] was “unsuitable”. The flexible substance ([1]; Initial) was 0.1 or less, the “content (SGLT-2 inhibitor)” value ([1]; Initial) was 99.5% and the property ([1]; Initial) was “suitable”.
With `OC[C@H]1O[C@@H](c2ccc(Cl)c(Cc3ccc(O[C@H]4CCOC4)cc3)c2)[C@H](O)[C@@H](O)[C@@H]1O` [Com. Ex. 17, Empagliflozin] the flexible substance [1, 8] was 1.0 or less, the “content (SGLT-2 inhibitor)” value [1, 8] was 97.3% and the property [1, 8] was “suitable”. The flexible substance [1, 9] was 1.0 or more, the “content (SGLT-2 inhibitor)” value [1, 9] was 95.1% and the property [1, 9] was “suitable”. For the same compound, the flexible substance ([1]; Initial) was 0.1 or less, the “content (SGLT-2 inhibitor)” value ([1]; Initial) was 99.9% and the property ([1]; Initial) was “suitable”.
For `CCCc1nc2c(C)cc(-c3nc4ccccc4n3C)cc2n1Cc1ccc(-c2ccccc2C(=O)O)cc1` [Telmisartan, 4'-[(1,4'-dimethyl-2'-propyl[2,6'-bi-1H-benzimidazol]-1'-yl)methyl][1,1'-biphenyl]-2-carboxylic acid], the cell survival rate [2] was “no effect”, the cell survival rate [3] was “no effect” and the “ACE expression inhibition effect” value ([4]; 25 µM treatment group) was “the best”. For the same compound, the “ACE expression inhibition effect” value ([4]; all treatment concentrations (10, 25, 50 µM), comparison with Olmesartan) was “superior to that of Olmesartan”, the “Cmax T/R ratio” value ([5]; Telmisartan 80 mg in the presence of Dapagliflozin 10 mg, 90% confidence interval 0.99 to 1.43) was 1.19 and the “AUC T/R ratio” value ([5]; Telmisartan 80 mg in the presence of Dapagliflozin 10 mg, 90% confidence interval 1.01 to 1.18) was 1.09. The mRNA expression ([6]; ACE mRNA, 25 µM treatment group) was “mostly inhibited”, the “mRNA expression inhibition effect” value ([6]; ACE mRNA, all treatment concentrations (Telmisartan 10 or 25 µM, Olmesartan 10 or 50 µM)) was “superior to that of Olmesartan” and the “mRNA expression of ACE” value [6, 10] was “did not decrease to a normal level”. For the same compound, the body weight measurement [7] was “tendency for inhibiting weight gain”.
For `CCOc1ccc(Cc2cc([C@@H]3O[C@H](CO)[C@@H](O)[C@H](O)[C@H]3O)ccc2Cl)cc1` [Dapagliflozin, (1S)-1,5-anhydro-1-C-{4-chloro-3-[(4-ethoxyphenyl)methyl]phenyl}-D-glucitol], the “Cmax T/R ratio” value ([5]; Dapagliflozin 10 mg in the presence of Telmisartan 80 mg, 90% confidence interval 0.93 to1.12) was 1.02, the “AUC T/R ratio” value ([5]; Dapagliflozin 10 mg in the presence of Telmisartan 80 mg, 90% confidence interval 0.97 to 1.03) was 1.00 and the “mRNA expression of ACE” value [6, 10] was “did not decrease to a normal level”. The GLU ([7]; blood test) was “decreased”.
With `CCCc1nc2c(C)cc(-c3nc4ccccc4n3C)cc2n1Cc1ccc(-c2ccccc2C(=O)O)cc1` [Com. Ex. 16, Telmisartan] the flexible substance [1, 8] was 0.1 or less, the “content (ARB)” value [1, 8] was 100.1% and the property [1, 8] was “suitable”. The flexible substance [1, 9] was 0.1 or less, the “content (ARB)” value [1, 9] was 100% and the property [1, 9] was “suitable”. The flexible substance ([1]; Initial) was 0.1 or less, the “content (ARB)” value ([1]; Initial) was 100.1% and the property ([1]; Initial) was “suitable”.
In the case of `CCCc1nc2c(C)cc(-c3nc4ccccc4n3C)cc2n1Cc1ccc(-c2ccccc2C(=O)O)cc1` [Comparative Example 14, Telmisartan], the “mRNA expression of ACE” value [6, 11] is reported as “decrease below the normal level”.
With `OC[C@H]1O[C@@H](c2ccc(Cl)c(Cc3ccc(O[C@H]4CCOC4)cc3)c2)[C@H](O)[C@@H](O)[C@@H]1O` [Empagliflozin, (1S)-1,5-anhydro-1-C-[4-chloro-3-[[4-[[(3S)-tetrahydro-3-furanyl]oxy]phenyl]methyl]phenyl]-D-glucitol] the “mRNA expression of ACE” value [6, 10] was “did not decrease to a normal level”.
With `CCCCC(=O)N(Cc1ccc(-c2ccccc2-c2nnn[nH]2)cc1)[C@H](C(=O)O)C(C)C` [Com. Ex. 20, Valsartan] the flexible substance [1, 8] was 0.1 or more, the “content (ARB)” value [1, 8] was 99.4% and the property [1, 8] was “suitable”. For the same compound, the flexible substance [1, 9] was 0.1 or more, the “content (ARB)” value [1, 9] was 99.2% and the property [1, 9] was “suitable”. For the same compound, the flexible substance ([1]; Initial) was 0.1 or less, the “content (ARB)” value ([1]; Initial) was 99.7% and the property ([1]; Initial) was “suitable”.
For `CCCc1nc(C(C)(C)O)c(C(=O)O)n1Cc1ccc(-c2ccccc2-c2nnn[nH]2)cc1` [Olmesartan], the cell survival rate [2] was “no effect” and the cell survival rate [3] was “no effect”.
For `OC[C@H]1O[C@@H](c2ccc(Cl)c(Cc3ccc(O[C@H]4CCOC4)cc3)c2)[C@H](O)[C@@H](O)[C@@H]1O` [Comparative Example 8, Empagliflozin], the “mRNA expression of ACE” value [6, 11] was “decrease below the normal level”.
